Laboratory results from patent publication US12508266B2 (priority 2010, dated 2025).
Converted amounts (≈) assume the structure as drawn.

Legend:
[1] = tested on: Venezuelan Equine Encephalitis TC83; format: cell-based, Venezuelan equine encephalitis virus
SARS-CoV Urbani [2] = format: cell-based, SARS corona virus
[3] = tested on: Measles virus (MV), strain Chicago; experiment: Visual CPE Assay; format: cell-based; details: Vero 76 cells
Junin Candid 1 [4] = format: cell-based, Junin virus
Dengue 2 New Guinea C [5] = format: cell-based, Dengue virus 2
[6] = tested on: Influenza A H3N2 Brisbane/10/2007; format: cell-based
Pichinde [7] = format: cell-based
Respiratory Syncytial A2 [8] = format: cell-based, Respiratory syncytial virus
Tacaribe TRVL 11573 [9] = format: cell-based
in vitro [10] = details: African green monkey, Visual CPE Assay
MA-104 cells [11] = details: African green monkey
[12] = tested on: Marburg, Junin Candid 1, Pichinde, Chikungunya 181/25 and Vaccinia NYCBH; experiment: organism not typed; format: cell-based; details: read-out: EC50 values, range over several viruses
Punta Toro A2 [13] = format: cell-based, Punta Toro virus
Rhinovirus 2 HGP [14] = format: cell-based
MA-104 cells [15] = details: African green monkey; remark: listed apart in the source
Rift Valley Fever MP-12 [16] = format: cell-based, Rift Valley fever virus
[17] = tested on: Influenza A H1N1 CA/04/2009 (Pandemic H1N1); format: cell-based
[18] = tested on: Adenovirus type 165089/Chicago; format: cell-based, Adenovirus (AV-1) type 1
Junin Candid 1 [19] = format: cell-based, Junin virus; remark: listed apart in the source
Influenza B Florida [20] = experiment: microbe, parasite or virus in culture; format: cell-based
Dengue 2 New Guinea C [21] = format: cell-based, Dengue virus 2; remark: listed apart in the source
[22] = tested on: Influenza A H1N1 CA/04/2009 (Pandemic H1N1); format: cell-based; remark: listed apart in the source
Parainfluenza 3 14702 [23] = format: cell-based, Parainfluenza virus type 3
West Nile [24] = format: cell-based, West Nile virus
[25] = tested on: H3N2 virus (A/Victoria/3/75); parameters: species or system Balb/C mice; details: mouse, in vivo, po
Respiratory Syncytial A2 [26] = format: cell-based, Respiratory syncytial virus; remark: listed apart in the source
Rift Valley Fever MP-12 [27] = format: cell-based, Rift Valley fever virus; remark: listed apart in the source
Pichinde [28] = format: cell-based; remark: listed apart in the source
Punta Toro A2 [29] = format: cell-based, Punta Toro virus; remark: listed apart in the source
in vitro [30] = details: human
[31] = tested on: Influenza A H3N2 Brisbane/10/2007; format: cell-based; remark: listed apart in the source
in vitro [32] = details: human; remark: listed apart in the source
in vitro [33] = details: African green monkey
Tacaribe TRVL 11573 [34] = format: cell-based; remark: listed apart in the source
West Nile [35] = format: cell-based, West Nile virus; remark: listed apart in the source
[36] = tested on: Yellow fever virus (Jimenez strain); parameters: species or system Syrian golden hamsters; details: hamster, in vivo
in vitro [37] = details: human; remark: listed apart in the source
Yellow Fever 17D [38] = format: cell-based, Yellow fever virus
[39] = tested on: Measles virus (MV), strain Chicago; experiment: Neutral Red Uptake Assay; format: cell-based; details: Vero 76 cells
SARS-CoV Urbani [40] = format: cell-based, SARS corona virus; remark: listed apart in the source
[41] = tested on: Influenza A H5N1 VN/1203/2004 Hybrid (on H1N1 backbone); format: cell-based
Influenza B Florida [42] = format: cell-based
Rhinovirus 2 HGP [43] = format: cell-based; remark: listed apart in the source
in vitro [44] = details: human; remark: listed apart in the source
Yellow Fever 17D [45] = format: cell-based, Yellow fever virus; remark: listed apart in the source
[46] = tested on: Venezuelan Equine Encephalitis TC83; format: cell-based, Venezuelan equine encephalitis virus; remark: listed apart in the source
Parainfluenza 3 14702 [47] = format: cell-based, Parainfluenza virus type 3; remark: listed apart in the source
[48] = tested on: Influenza A H5N1 VN/1203/2004 Hybrid (on H1N1 backbone); format: cell-based; remark: listed apart in the source
[49] = tested on: Measles virus (MV), strain Chicago; experiment: Virus Yield Reduction Assay; format: cell-based; details: Vero-76 cells, one log 10 drop in virus produced
[50] = tested on: Adenovirus type 165089/Chicago; format: cell-based, Adenovirus (AV-1) type 1; remark: listed apart in the source

For Nc1ncnc2c([C@@H]3N[C@H](CO)[C@@H](O)[C@H]3O)c[nH]c12 [Compound 1, (2S,3S,4R,5R)-2-(4-Amino-5H-pyrrolo[3,2-d]pyrimidin-7-yl)-5-(hydroxymethyl) pyrrolidine-3,4-diol], which “SI Visual CPE Assay” value [1] is on record?
Its value is 2.2.

And the “SI Neutral Red Uptake Assay” value (SARS-CoV Urbani [2])?
The value was >6.3.

What about the “SI Visual CPE Assay” value [3] of the same molecule?
The value was >180.

And the “SI Neutral Red Uptake Assay” value (Junin Candid 1 [4])?
The value was 14.

And the “SI Neutral Red Uptake Assay” value (Dengue 2 New Guinea C [5])?
Its value is 26.

And the “SI Visual CPE Assay” value [6]?
Its value is 140.

And the “SI Neutral Red Uptake Assay” value (Pichinde [7])?
Its value is 6.7.

And the “SI Neutral Red Uptake Assay” value (Respiratory Syncytial A2 [8])?
Its value is 0.

And the “SI Visual CPE Assay” value (Tacaribe TRVL 11573 [9])?
The value was 4.2.

And the CC50 (in vitro [10])?
The CC50 was 100 µg/mL (≈ 377 µM).

And the “IC50 Neutral Red Uptake Assay” value (MA-104 cells [11])?
The value was >100 µg/mL.

And the EC50 [12]?
Its EC50 is ≥ 10 µg/mL.

What about the “SI Visual CPE Assay” value (Punta Toro A2 [13]) of the same molecule?
Its value is >1.6.

What about the “SI Neutral Red Uptake Assay” value (Rhinovirus 2 HGP [14]) of the same molecule?
Its value is >1.8.

And the “IC50 Visual CPE Assay” value (MA-104 cells [15])?
Its value is >100 µg/mL.

And the “SI Visual CPE Assay” value (Rift Valley Fever MP-12 [16])?
Its value is 9.1.

And the “SI Visual CPE Assay” value [17]?
Its value is 120.

What about the “SI Visual CPE Assay” value [18] of the same molecule?
Its value is >2.6.

What about the “SI Visual CPE Assay” value (Junin Candid 1 [19]) of the same molecule?
The value was >17.

And the “SI Neutral Red Uptake Assay” value (Influenza B Florida [20])?
The value was 38.

What about the EC50 (Influenza B Florida [20]; Influenza B virus) of the same molecule?
The EC50 was 1.8 µg/mL (≈ 6.79 µM).

What about the “SI Visual CPE Assay” value (Dengue 2 New Guinea C [21]) of the same molecule?
The value was 25.

And the “SI Neutral Red Uptake Assay” value [22]?
The value was 120.

What about the “SI Neutral Red Uptake Assay” value (Parainfluenza 3 14702 [23]) of the same molecule?
The value was 52.

And the “SI Visual CPE Assay” value (West Nile [24])?
Its value is 0.

What about the “Mean weight change (grams ± SEM) Day 9” value [25] of the same molecule?
Its value is 0.01 ± 0.27 grams.

And the “SI Visual CPE Assay” value (Respiratory Syncytial A2 [26])?
The value was 0.

And the “SI Neutral Red Uptake Assay” value (Rift Valley Fever MP-12 [27])?
The value was 6.6.

And the “SI Visual CPE Assay” value (Pichinde [28])?
Its value is >8.2.

And the “SI Neutral Red Uptake Assay” value (Punta Toro A2 [29])?
Its value is 0.

And the CC50 (in vitro [30])?
Its CC50 is > 100 µg/mL.

And the “SI Neutral Red Uptake Assay” value [31]?
The value was 79.

What about the CC50 (in vitro [32]) of the same molecule?
Its CC50 is > 100 µg/mL.

And the CC50 (in vitro [33])?
Its CC50 is 52 µg/mL (≈ 196 µM).

And the “SI Neutral Red Uptake Assay” value (Tacaribe TRVL 11573 [34])?
The value was 2.

What about the “SI Neutral Red Uptake Assay” value (West Nile [35]) of the same molecule?
Its value is 2.8.

And the weight change [36]?
Its weight change is “weight gain over placebo and ribavirin administered pre-infection”.

And the CC50 (in vitro [37])?
Its CC50 is > 100 µg/mL.

And the “SI Neutral Red Uptake Assay” value (Yellow Fever 17D [38])?
Its value is 38.

And the “SI Neutral Red Uptake Assay” value [39]?
The value was >71.

What about the “SI Visual CPE Assay” value (SARS-CoV Urbani [40]) of the same molecule?
The value was >7.1.

What about the “SI Neutral Red Uptake Assay” value [41] of the same molecule?
Its value is 130.

And the “SI Visual CPE Assay” value (Influenza B Florida [42])?
The value was 290.

What about the “SI Visual CPE Assay” value (Rhinovirus 2 HGP [43]) of the same molecule?
Its value is >1.8.

And the CC50 (in vitro [44])?
Its CC50 is > 100 µg/mL.

What about the “SI Visual CPE Assay” value (Yellow Fever 17D [45]) of the same molecule?
Its value is 43.

What about the “SI Neutral Red Uptake Assay” value [46] of the same molecule?
The value was 1.2.

What about the “SI Visual CPE Assay” value (Parainfluenza 3 14702 [47]) of the same molecule?
The value was 7.1.

And the “SI Visual CPE Assay” value [48]?
Its value is >1600.

What about the “EC90 virus yield reduction” value [49] of the same molecule?
The value was 0.37 µg/mL (≈ 1.39 µM).

What about the “SI Neutral Red Uptake Assay” value [50] of the same molecule?
Its value is >2.3.
